Experimental data: patent US20210024542A1 (Torcept Therapeutics, Inc., priority 2018, published 2021)

Columns and labels:
[1] = test system: AGS; assay: OncoPanel cell proliferation assay, AGS; assay type: cell-based, human; conditions: scale 0-10
Procedure: (§1) Cells were grown in RPMI 1640, 10% FBS, 2 mM L-alanyl-L-glutamine, 1 mM Na pyruvate, or a special medium. Cells were seeded into 384-well plates and incubated in a humidified atmosphere of 5% CO2 at 37° C. Compounds were added the day following cell seeding. At the same time, a time zero untreated cell plate was generated. After a 3-day incubation period, cells were fixed and stained to allow fluorescence imaging of nuclei. Compounds (1 mM stock solutions) were serially diluted in half-log steps from the highest test concentration ([…]), and assayed over 10 concentrations with a maximum assay concentration of 0.1% DMSO. Automated fluorescence microscopy was carried out using a Molecular Devices ImageXpress Micro XL high-content imager, and images were collected with a 4× objective. 16-bit TIFF images were acquired and analyzed with MetaXpress 5.1.0.41 software.
(§2) Cell proliferation was measured by the fluorescence intensity of an incorporated nuclear dye. The output is referred to as the relative cell count, where the measured nuclear intensity is transformed to percent of control (POC) using the following formula: […]
(§3) Cellular response parameters were calculated using nonlinear regression to a sigmoidal single-site dose response model:
(§4) Where y is a response measured at concentration x, A and B are the lower and upper limits of the response, C is the concentration at the response midpoint (EC50), and D is the Hill Slope (Ref. 1).
(§5) EC50 is the test compound concentration at the curve inflection point or half the effective response (parameter C of the fitted curve solution). GI50 is the concentration needed to reduce the observed growth by half (midway between the curve maximum and the time zero value). “Cell Count Activity Area” is an estimate of the integrated area above the curve (Barretina, et al. The Cancer Cell Line Encyclopedia enables predictive modelling of anticancer drug sensitivity. Nature 483: 603-607). […] In rare instances, values <0 or >10 may be observed. […] Curve-fitting, calculations, and report generation was performed using a custom data reduction engine and MathIQ based software (AIM).

[2] = test system: A388; assay: OncoPanel cell proliferation assay, A388; assay type: cell-based, human; conditions: for Relative cell count (%) Mean: A388
Procedure: as §1, with “Cells” for “Cells were grown in RPMI 1640, 10% FBS, 2 mM L-alanyl-L-glutamine, 1 mM Na pyruvate, or a special medium. Cells”
as §2, §3, §4
(§6) GI50 is the concentration needed to reduce the observed growth by half (midway between the curve maximum and the time zero value). […] In rare instances, values <0 or >10 may be observed. […] Curve-fitting, calculations, and report generation was performed using a custom data reduction engine and MathIQ based software (AIM).

[3] = test system: SK-N-AS; assay: OncoPanel cell proliferation assay, SK-N-AS; assay type: cell-based, human
Procedure: as §1, §2, §3, §4, §5

[4] = test system: CAMA-1; assay: OncoPanel cell proliferation assay, CAMA-1; conditions: for Relative cell count (%) Mean: CAMA-1
Procedure: (§7) Cells were seeded into 384-well plates and incubated in a humidified atmosphere of 5% CO2 at 37° C. Compounds were added the day following cell seeding. At the same time, a time zero untreated cell plate was generated. After a 3-day incubation period, cells were fixed and stained to allow fluorescence imaging of nuclei. Compounds (1 mM stock solutions) were serially diluted in half-log steps from the highest test concentration (1 micromol), and assayed over 10 concentrations with a maximum assay concentration of 0.1% DMSO. Automated fluorescence microscopy was carried out using a Molecular Devices ImageXpress Micro XL high-content imager, and images were collected with a 4× objective. 16-bit TIFF images were acquired and analyzed with MetaXpress 5.1.0.41 software.

[5] = test system: SNU-5; assay: OncoPanel cell proliferation assay, SNU-5; assay type: cell-based, human; conditions: for Relative cell count (%) Mean: SNU-5
Procedure: as §1, with “Cells” for “Cells were grown in RPMI 1640, 10% FBS, 2 mM L-alanyl-L-glutamine, 1 mM Na pyruvate, or a special medium. Cells”
as §2, §3, §4, §6

[6] = test system: SHP-77; assay: OncoPanel cell proliferation assay, SHP-77; conditions: for Relative cell count (%) Mean: SHP-77
Procedure: as §7

[7] = test system: CRO-AP2; assay: OncoPanel cell proliferation assay, CRO-AP2; assay type: cell-based, human; conditions: for Relative cell count (%) Mean: CRO-AP2
Procedure: as §1, §2, §3, §4, §5

CO[C@H]1C[C@@H]2CC[C@@H](C)[C@@](O)(O2)C(=O)C(=O)N2CCCC[C@H]2C(=O)O[C@H]([C@H](C)C[C@@H]2C[C@@H]3C[C@H]2C[C@H]3O)CC(=O)[C@H](C)/C=C(\C)[C@@H](O)[C@@H](OC)C(=O)[C@H](C)C[C@H](C)/C=C/C=C/C=C/1C [Formula I, 37R-hydroxynorbornylrapamycin]
Cell Count Activity Area [1]: 5.50 | Cell Count Activity Area ([2]; A388, scale 0-10): 3.22 | Relative cell count (%) Mean ([2]; 1.00E+00 microM): 53.8% | Relative cell count (%) Mean ([2]; 1.00E−01 microM): 62.3% | Relative cell count (%) Mean ([2]; 1.00E−02 microM): 63.3% | Relative cell count (%) Mean ([2]; 1.00E−03 microM): 69.1% | Relative cell count (%) Mean ([2]; 1.01E−04 microM): 77.9% | Relative cell count (%) Mean ([2]; 3.16E−01 microM): 59.0% | Relative cell count (%) Mean ([2]; 3.17E−02 microM): 59.6% | Relative cell count (%) Mean ([2]; 3.17E−03 microM): 67.1% | Relative cell count (%) Mean ([2]; 3.18E−04 microM): 76.3% | Relative cell count (%) Mean ([2]; 3.18E−05 microM): 89.9% | EC50 ([2]; Homo sapiens, 72 h, A388, 3-day incubation, read-out: Cell Count EC50): 0.19 nM | GI50 ([2]; Homo sapiens, 72 h, A388, 3-day incubation, read-out: Cell Count GI50): 50.7 nM | IC50 ([2]; Homo sapiens, 72 h, A388, 3-day incubation, read-out: Cell Count IC50): > 1000 nM | Relative cell count (%) Mean ([3]; 1.00E+00 microM): 45.8% | Relative cell count (%) Mean ([3]; 1.00E−01 microM): 51.0% | Relative cell count (%) Mean ([3]; 1.00E−02 microM): 53.6% | Relative cell count (%) Mean ([3]; 1.00E−03 microM): 62.3% | Relative cell count (%) Mean ([3]; 1.01E−04 microM): 84.8% | Relative cell count (%) Mean ([3]; 3.16E−01 microM): 48.3% | Relative cell count (%) Mean ([3]; 3.17E−02 microM): 52.4% | Relative cell count (%) Mean ([3]; 3.17E−03 microM): 56.7% | Relative cell count (%) Mean ([3]; 3.18E−04 microM): 77.7% | Relative cell count (%) Mean ([3]; 3.18E−05 microM): 102.1% | EC50 ([3]; Homo sapiens, 72 h, 3-day incubation, read-out: Cell Count EC50): 0.283 nM | GI50 ([3]; Homo sapiens, 72 h, 3-day incubation, read-out: Cell Count GI50): 0.826 nM | IC50 ([3]; Homo sapiens, 72 h, 3-day incubation, read-out: Cell Count IC50): 7.35 nM | Cell Count Activity Area ([3]; scale 0-10): 3.99 | Cell Count Activity Area ([4]; CAMA-1, scale 0-10): 4.42 | Relative cell count (%) Mean ([4]; 1.00E+00 microM): 44.1% | Relative cell count (%) Mean ([4]; 1.00E−01 microM): 45.8% | Relative cell count (%) Mean ([4]; 1.00E−02 microM): 51.2% | Relative cell count (%) Mean ([4]; 1.00E−03 microM): 53.9% | Relative cell count (%) Mean ([4]; 1.01E−04 microM): 86.0% | Relative cell count (%) Mean ([4]; 3.16E−01 microM): 46.2% | Relative cell count (%) Mean ([4]; 3.17E−02 microM): 48.8% | Relative cell count (%) Mean ([4]; 3.17E−03 microM): 50.2% | Relative cell count (%) Mean ([4]; 3.18E−04 microM): 66.1% | Relative cell count (%) Mean ([4]; 3.18E−05 microM): 97.5% | EC50 ([4]; Homo sapiens, CAMA-1, 72 h, read-out: Cell Count EC50): 0.174 nM | GI50 ([4]; Homo sapiens, CAMA-1, 72 h, read-out: Cell Count GI50): 0.239 nM | IC50 ([4]; Homo sapiens, CAMA-1, 72 h, read-out: Cell Count IC50): 1.28 nM | EC50 ([5]; Homo sapiens, 72 h, SNU-5, 3-day incubation, read-out: Cell Count EC50): 2.05 nM | GI50 ([5]; Homo sapiens, 72 h, SNU-5, 3-day incubation, read-out: Cell Count GI50): 23.8 nM | IC50 ([5]; Homo sapiens, 72 h, SNU-5, 3-day incubation, read-out: Cell Count IC50): > 1000 nM | Cell Count Activity Area ([5]; SNU-5, scale 0-10): 2.14 | Relative cell count (%) Mean ([5]; 1.00E+00 microM): 62.8% | Relative cell count (%) Mean ([5]; 1.00E−01 microM): 65.7% | Relative cell count (%) Mean ([5]; 1.00E−02 microM): 73.2% | Relative cell count (%) Mean ([5]; 1.00E−03 microM): 84.5% | Relative cell count (%) Mean ([5]; 1.01E−04 microM): 95.3% | Relative cell count (%) Mean ([5]; 3.16E−01 microM): 64.0% | Relative cell count (%) Mean ([5]; 3.17E−02 microM): 65.8% | Relative cell count (%) Mean ([5]; 3.17E−03 microM): 77.6% | Relative cell count (%) Mean ([5]; 3.18E−04 microM): 91.2% | Relative cell count (%) Mean ([5]; 3.18E−05 microM): 96.3% | EC50 ([6]; Homo sapiens, SHP77, 72 h, read-out: Cell Count EC50): 309 nM | GI50 ([6]; Homo sapiens, SHP77, 72 h, read-out: Cell Count GI50): > 1000 nM | IC50 ([6]; Homo sapiens, SHP77, 72 h, read-out: Cell Count IC50): > 1000 nM | Cell Count Activity Area ([6]; SHP-77, scale 0-10): 1.18 | Relative cell count (%) Mean ([6]; 1.00E+00 microM): 71.6% | Relative cell count (%) Mean ([6]; 1.00E−01 microM): 83.4% | Relative cell count (%) Mean ([6]; 1.00E−02 microM): 94.0% | Relative cell count (%) Mean ([6]; 1.00E−03 microM): 96.5% | Relative cell count (%) Mean ([6]; 1.01E−04 microM): 98.0% | Relative cell count (%) Mean ([6]; 3.16E−01 microM): 75.9% | Relative cell count (%) Mean ([6]; 3.17E−02 microM): 84.9% | Relative cell count (%) Mean ([6]; 3.17E−03 microM): 89.5% | Relative cell count (%) Mean ([6]; 3.18E−04 microM): 101.7% | Relative cell count (%) Mean ([6]; 3.18E−05 microM): 99.1% | Cell Count Activity Area ([7]; CRO-AP2, scale 0-10): 5.61 | Relative cell count (%) Mean ([7]; 1.00E+00 microM): 23.3% | Relative cell count (%) Mean ([7]; 1.00E−01 microM): 24.5% | Relative cell count (%) Mean ([7]; 1.00E−02 microM): 27.9% | Relative cell count (%) Mean ([7]; 1.00E−03 microM): 38.7% | Relative cell count (%) Mean ([7]; 1.01E−04 microM): 89.0% | Relative cell count (%) Mean ([7]; 3.16E−01 microM): 23.3% | Relative cell count (%) Mean ([7]; 3.17E−02 microM): 23.6% | Relative cell count (%) Mean ([7]; 3.17E−03 microM): 29.7% | Relative cell count (%) Mean ([7]; 3.18E−04 microM): 59.0% | Relative cell count (%) Mean ([7]; 3.18E−05 microM): 93.4% | EC50 ([7]; Homo sapiens, 72 h, CRO-AP2, 3-day incubation, read-out: Cell Count EC50): 0.319 nM | GI50 ([7]; Homo sapiens, 72 h, CRO-AP2, 3-day incubation, read-out: Cell Count GI50): 0.434 nM | IC50 ([7]; Homo sapiens, 72 h, CRO-AP2, 3-day incubation, read-out: Cell Count IC50): 0.536 nM
